Measured values from patent US20250288547A1, “TREATMENT OF DISEASES CAUSED BY RNA VIRUSES” (Amerimmune LLC, priority 2021, published 2025).

How the values were obtained:
[1] = system: red blood cell (RBC) layer in the PBMC layer (RBC aggregation); assay: “Red ring” (contaminating RBC layer in PBMC layer) in COVID-19 patient samples; format: cell-based, human; settings: PBMCs from COVID-19 patient samples, 1 micromolar, room temperature, 17 hours
Source text: One of the observations made during the preparation of peripheral blood mononuclear cells (PBMC) for some of the experiments described herein was the presence of a contaminating red blood cell (RBC) layer in the PBMC layer, which was referred to as a “red ring”. This “red ring” was present in all COVID-19 patient samples, with no difference between critically ill patients and those who were only on supportive care outside the ICU setting (see FIG. 12A).
When PBMCs isolated from COVID-19 patient samples were incubated with Emricasan (1 micromolar) at room temperature for 17 hours, a decrease in the “red ring” was observed.

Caspase 1 = Caspase 1 (Homo sapiens, UniProt P29466); assay: Active caspase-1 FLICA flow cytometry, whole blood from COVID-19 (+) patients incubated with Emricasan (Example 7); format: cell-based; set-up: dose or concentration left out as unconfirmed; settings: 17 hours (overnight) room temperature on a rocker, 3 samples from COVID-19 patients
Experimental: Whole blood from COVID-19 (+) patients was incubated either (A) without addition of Emricasan (Untreated) or (B) with Emricasan (Sigma Aldrich, MO, SML2227-5 MG), 1 μM final concentration for 3.5 hours at room temperature (Treated). Following incubation with or without Emricasan, PBMCs were purified using an Accuspin System—Histopaque 1077 (Sigma Aldrich, MO, A6929) as per the manufacturer's instructions. Purified Treated and Untreated PBMCs were incubated with nigericin (Immunochemistry Technologies, MN) as per the manufacturer's instructions for 2 hours. […] PMBCs were washed with cell wash buffer (Immunochemistry Technologies, MN) to remove unbound FLICA probes. Washed PBMCs were FACS-sorted using CD45 PE-CY7 [HI30], CD3 AF700 [UCHT1], CD4 PE [RPA-T4], CD45RO PerCP-EF710 [UCHL1], and Viability Dye 780 (Thermo Fisher Scientific, Carlsbad, CA) to identify viable CD3-cells as well as CD3+ cells and CD3+CD4+ T cells. Lymphocytes were identified using a standard gating schematic that incorporated gating of lymphocytes on a FSC/SSC plot and singlets on a FSC-A/FSC-H plot. Lymphocytes were further identified as CD45+ on a CD45/SSC plot and subsequent CD3−, CD3+, and CD3+CD4+ cells were identified on a CD45+CD3/CD4 plot.
In another experiment, whole blood was incubated with […] Emricasan for 17 hours (overnight between 5 PM to 10 AM) at room temperature on a rocker. […]

caspase-1 = molecular target: T1, caspase-1 (Homo sapiens, UniProt P29466); assay: Ex vivo active caspase-1 in CD4 T cells, whole blood incubated with caspase inhibitors with or without nigericin (Example 9); format: cell-based; settings: inhibitor incubation, 24 hrs later with or without nigericin; for T-helper cell caspase-1 expression: COVID-19 whole blood samples
T1 sequence (P29466 120-297 limits assumed): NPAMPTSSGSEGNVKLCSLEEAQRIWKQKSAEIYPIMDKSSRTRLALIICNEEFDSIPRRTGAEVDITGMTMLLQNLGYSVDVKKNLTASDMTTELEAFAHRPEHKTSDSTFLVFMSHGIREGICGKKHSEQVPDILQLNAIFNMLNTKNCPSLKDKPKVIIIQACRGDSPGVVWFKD
T1 sequence (P29466 317-404 limits assumed): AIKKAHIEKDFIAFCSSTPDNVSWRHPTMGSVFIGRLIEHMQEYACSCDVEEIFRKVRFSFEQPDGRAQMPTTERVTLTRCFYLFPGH

caspase-3 = molecular target: T2, caspase-3 (Homo sapiens, UniProt P42574); assay: Caspase-3 in red blood cells incubated with patient plasma (Example 9); format: cell-based
T2 construct: endogenous in cells; host or cells: human red blood cells incubated with patient plasma
T2 sequence (P42574 29-175 limits assumed): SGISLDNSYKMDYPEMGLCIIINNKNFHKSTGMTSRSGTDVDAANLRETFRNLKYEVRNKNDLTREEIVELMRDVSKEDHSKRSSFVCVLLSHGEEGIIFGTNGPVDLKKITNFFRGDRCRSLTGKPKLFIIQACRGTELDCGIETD
T2 sequence (P42574 176-277 limits assumed): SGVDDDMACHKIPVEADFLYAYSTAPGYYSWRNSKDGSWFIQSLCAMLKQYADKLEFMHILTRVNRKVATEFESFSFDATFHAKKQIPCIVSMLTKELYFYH

mild COVID-19 = assay: Phase 1 double-blinded placebo-controlled safety and tolerability study in symptomatic outpatient mild-COVID-19 patients (Example 10); format: in vivo, human
Experimental: A double-blinded, placebo-controlled randomized safety and tolerability study (1:1 active: placebo) was performed in a number symptomatic outpatient mild-COVID-19 patients receiving standard of care therapy. A total of 13 patients were enrolled at a single site in New York City. Treatment involved administering Emricasan (EMR) (or placebo) at 25 mg BID dosing for 14 days, with follow-up for an additional month. […] This study was thus designed to evaluate safety and tolerability, with the primary endpoint being the difference, if any, between treatment-related adverse events (AEs), including severe adverse events (SAEs), if any, in the active (EMR) and placebo groups through day 14. The pharmacokinetics (PK) of EMR has been extensively studied in earlier clinical trials. Accordingly, patients in this Phase 1 study were sampled at the end of the study to confirm that Emricasan pharmacokinetics was not altered in COVID-19 patients. Secondary endpoints included various clinical and laboratory measures and patient reported outcomes (PROs) using a COVID-19-related assessment tool.

[2] = molecular target: T3, main protease of SARS-COV-2 (Severe acute respiratory syndrome coronavirus 2, UniProt P0DTD1); settings: subsequent reports; cited from earlier work
T3 construct: the main protease of SARS-COV-2

ACE-2 receptor = settings: subsequent reports; cited from earlier work
[3] = in vivo; cited from earlier work

In the case of C[C@H](NC(=O)C(=O)Nc1ccccc1C(C)(C)C)C(=O)N[C@@H](CC(=O)O)C(=O)COc1c(F)c(F)cc(F)c1F [Emricasan, (3S)-3-{[(2S)-2-{[2-(2-tert-butylanilino)-2-oxoacetyl]amino}propanoyl]amino}-4-oxo-5-(2,3,5,6-tetrafluorophenoxy) pentanoic acid], the ““red ring” (contaminating RBC layer in PBMC layer)” value [1] is reported as “decrease”, the “samples showing inhibition of nigericin-induced Caspase-1 activity” value (Caspase 1) is reported as “⅓” and the “T-helper cell caspase-1 expression” value (caspase-1) is reported as “suppressed”. The “T-helper cell caspase-1 upregulation” value (caspase-1; healthy subjects' whole blood) was “prevented its upregulation”, the “RBC caspase-3 up-regulation” value (caspase-3; healthy subjects' RBCs, COVID-19 plasma incubated samples) was “suppressed” and the “RBC baseline caspase-3 expression levels” value (caspase-3; influenza-plasma incubated samples) was “did not change”. For the same compound, the serious adverse events (mild COVID-19; 25 mg BID 14 days, mild COVID-19 outpatients) was “no reports of serious adverse events”, the safety and tolerability (mild COVID-19; 25 mg BID 14 days, during 2 weeks of dosing and at week 10 follow up, compared to placebo) was “safe and well tolerated” and the “resolution of symptoms most commonly associated with mild COVID-19 (cough, headache, fatigue)” value (mild COVID-19; patients who completed treatment, at day 7, continued through Day 45) was “complete resolution”. For the same compound, the “inhibition of main protease activity” value [2] was “may also inhibit”, the “inhibition of ACE-2 receptor binding activity for SARS-COV-2” value (ACE-2 receptor) was “inhibit the binding activity” and the “safety and tolerance profile” value [3] was “excellent safety and tolerance profile”.
With CCO[C@@H]1OC(=O)C[C@@H]1NC(=O)[C@@H]1CCCN1C(=O)[C@@H](NC(=O)c1ccc(N)c(Cl)c1)C(C)(C)C [VX765, Belnacasan] the “T-helper cell caspase-1 expression” value (caspase-1) was “did not show a strong similar suppressive effect”.
